Assay results: patent US11248018B2, “Process for preparation of nicotinamide riboside (NR) and cosmetic composition comprising (NR and a phosphate-binding agent” (YISSUM RESEARCH DEVELOPMENT COMPANY OF THE HEBREW …, priority 2016, dated 2022)

What was measured:
Assay type in all cases: physicochemical
[1] = Hydrolysis of NAD^+ with phosphate binding agent (calcium L-ascorbate) alone in water at 80° C. (Example 3), concentrations over time; settings: for Relative Concentration: Example 3, calcium L-ascorbate alone, 80° C.
Description: In a 250-ml flask, a mixture of NAD^+ (0.34 gr) and 1.8 gr of calcium L-ascorbate in 100 ml of deionized water was heated to 80° C. for 4 days. The mixture was analyzed every 3 hours using HPLC and ^31P-NMR.
The rate of the tertiary hydrolysis (decomposition of the NR) is slower. Under these conditions, the concentration of the NR remains essentially stable (˜10% decline) over 24 hours (steady-state). The concentration was determined by comparing the abundance of the desired peak to the abundance of the internal standard MS and ^1H- and ^31P-NMR (intensity of the signal). After this time the concentration of the NR decreased and the product was no longer present.

[2] = One-stage hydrolysis of NAD^+ with ZrCl4 and calcium L-ascorbate in water at 80° C. (Example 2), concentrations over time; settings: for Relative Concentration: Example 2, ZrCl4 + calcium L-ascorbate, 80° C.
Description: NMR spectra were recorded with 400 MHz Bruker spectrometer. Reversed phase HPLC column of RP-18 type (Chromolith performance RP18e (100-4.6 mm) UM8 086/001, Merck KGaA) using deionized HPLC-grade solvents in the following composition: 1% acetonitrile, 99% water. Flow rate was 0.1 mL/min, detection performed with UV detector at 260 nm. Mass Spectrometry (MS), 6200 series TOF/6500 series Q-TOF B.05.01 (B5125.1).
In a 250-ml flask, a mixture of NAD^+ (0.33 gr), ZrCl4 (0.58 gr) and 1.80 gr of calcium L-ascorbate in 100 ml of deionized water was heated to 80° C. for 2 days. Over this time period, full conversion of the NAD^+ was observed by HPLC. Decomposition of the desired NR product was also observed under these conditions, but to a lower extent in comparison with the process of Example 1. HR-MS spectrum of the product is MW of 255.10. The extent of the decomposition of the desired NR was determined by comparing the abundance of the desired peak to the abundance of the internal standard.

[3] = Stability of commercial NR product under hydrolytic conditions in deionized water, followed by NMR
Description: Additionally, to establish the stability of the commercial NR product (Niagen® purchased from ChromaDex) under hydrolytic conditions, it was dissolved in deionized water as described herein and the mixture was analyzed every 3 hours using ^1H- and ^31P-NMR.

| Structure (SMILES) | Relative Concentration ([1]; time 0 hours) | Relative Concentration ([1]; time 0.5 hours) | Relative Concentration ([1]; time 6 hours) | Relative Concentration ([1]; time 16 hours) | Relative Concentration ([1]; time 24 hours) | Relative Concentration ([1]; time 36 hours) | Relative Concentration ([1]; time 48 hours) | Relative Concentration ([2]; time 0 hours) | Relative Concentration ([2]; time 0.5 hours) | Relative Concentration ([2]; time 6 hours) | Relative Concentration ([2]; time 16 hours) | Relative Concentration ([2]; time 24 hours) | other results |
| --- | --- | --- | --- | --- | --- | --- | --- | --- | --- | --- | --- | --- | --- |
| NC(=O)C1=CN([C@@H]2O[C@H](COP(=O)(O)OP(=O)(O)OC[C@H]3O[C@@H](n4cnc5c(N)ncnc54)[C@H](O)[C@@H]3O)[C@@H](O)[C@H]2O)C=CC1 [NAD^+, β-nicotinamide adenine dinucleotide] | 1 | 0.86 | 0.62 | 0.55 | 0.38 | 0.22 | 0.2 | 1 | 0.66 | 0.32 | 0.05 | 0 | – |
| NC(=O)c1ccc[n+]([C@@H]2O[C@H](CO)[C@@H](O)[C@H]2O)c1 [NR (Niagen ®), Nicotinamide riboside] | – | – | – | – | – | – | – | – | – | – | – | – | NR peak at 6.15 ppm in 1H-NMR versus DMF internal standard ([3]; after 24 hours): NR has degraded; Relative Concentration ([3]; time 0.5 hours): 1; Relative Concentration ([3]; time 3 hours): 0.62; Relative Concentration ([3]; time 6 hours): 0.48; Relative Concentration ([3]; time 24 hours): 0.02; Relative Concentration ([3]; time 48 hours): 0 |
| NC(=O)c1ccc[n+]([C@@H]2O[C@H](CO)[C@@H](O)[C@H]2O)c1 [NR, 1-(β-D-Ribofuranosyl)-nicotinamide] | 0 | 0.06 | 0.11 | 0.09 | 0.08 | 0.01 | 0 | 0 | 0.05 | 0.06 | 0.02 | 0 | decline of NR concentration ([1]; over 24 hours (steady-state), Example 3): ~10%; time the concentration of the product remains stable (decline of no more than 10%) ([1]; solution from degrading NAD^+ with phosphate-binding agent alone, absence of ZrCl4): at least 24 hours; stability of the NR concentrations ([2]; NR-containing aqueous solution, ZrCl4 with phosphate-binding agent added concurrently): about 6 hours |
| NC(=O)c1cccnc1 [Nicotinamide, nicotinamide] | 0 | 0.1 | 0.16 | 0.32 | 0.48 | 0.41 | 0.41 | 0 | 0.1 | 0.19 | 0.32 | 0.48 | – |
